Reference: patent US12552694B2, “Use of trivalent metals to enhance aquatic pesticide efficacy, surface water, and sediment quality while minimizing risk to aquatic biota” (SePRO Corporation, priority 2022, dated 2026)
Where two headings read alike, the source gives them in different places.

How the values were obtained:
[1] = Example 1: capacity of additives to bind dissolved La and Ce (ICP-OES); format: physicochemical
duckweed = settings: 24 hours
Method: In one exemplary experiment, 16-oz cups were filled with 400 mL of well water containing approximately 100 μg-P/L as phosphate. One cup was left as the no biomass control and approximately 8 g (±0.5 g) of actively growing duckweed were added to the other cups. One cup was left as a control and diquat (as Weedtrine® D) was added to each of the other cups at the following rates: 50 μg/L. 100 μg/L, 200 μg/L, and 300 μg/L. These samples were then placed under artificial lighting with a scheduled 16-hour light period and 8-hour dark period. […] Samples then were briefly stirred and allowed to sit under the lighting. After 2 hours, water samples were collected with a syringe, filtered with a 0.22 μm nylon filter, acidified with nitric acid, and analyzed for lanthanum and cerium concentration.

duckweed (Lemna spp.) = experiment: Example 7: duckweed plant coverage (Canopeo) after herbicides with and without La/Ce; format: in vivo; settings: for Plant coverage, 3 Days Post: 3 days post treatment; for Plant coverage, 5 Days Post: 5 days post treatment; for Plant coverage, 7 Days Post: 7 days post treatment; for Plant coverage, Pre-Treat.: prior to treatments (baseline)
[2] = Example 4: bound La and Ce over time and final pH (FIG. 1); format: physicochemical; settings: after the final samples (30 minutes), continuously stirred; control 5.6
[3] = test sample: La/Ce stock in 50 mL deionized water with 90-110 mg additive

## O=C([O-])C(O)C(O)C(=O)[O-].[Na+].[Na+] (centres unmarked) [Sodium tartrate, sodium tartrate]
[1]
  pH: 6.5

## O=[Si]([O-])[O-].[Na+].[Na+] [Sodium metasilicate (anhydrous), sodium metasilicate (anhydrous)]
[1]; [3]
  pH: 13

## c1cc[n+]2c(c1)-c1cccc[n+]1CC2 [Diquat only, diquat]
duckweed; 50 μg/L diquat
  Perceived injury: 20%
duckweed; 100 μg/L diquat
  Perceived injury: 40%
duckweed; 200 μg/L diquat
  Perceived injury: 50%
duckweed; 300 μg/L diquat
  Perceived injury: 80%
Duckweed (Lemna spp.); 3 Days Post vs pre-treatment
  % Change in plant coverage: −75%
Duckweed (Lemna spp.); 5 Days Post vs pre-treatment
  % Change in plant coverage: −89%
Duckweed (Lemna spp.); 7 Days Post vs pre-treatment
  % Change in plant coverage: −92%
Duckweed (Lemna spp.)
  Plant coverage, 3 Days Post: 10%
  Plant coverage, 5 Days Post: 4%
  Plant coverage, 7 Days Post: 3%
  Plant coverage, Pre-Treat.: 40%

## [Ca+2].[OH-].[OH-] [Calcium hydroxide, calcium hydroxide]
[1]
  pH: 14
[2]
  pH of beaker: 8.7 (±0.1)

## C=CC(=O)[O-].[Na+] [Sodium acrylate, sodium acrylate]
[1]
  pH: 7

## O=C([O-])CC(O)(CC(=O)[O-])C(=O)[O-].[Na+].[Na+].[Na+] [Sodium citrate, sodium citrate]
[1]
  pH: 8

## fluridone [Fluridone only]
Duckweed (Lemna spp.); 3 Days Post vs pre-treatment
  % Change in plant coverage: −8%
Duckweed (Lemna spp.); 5 Days Post vs pre-treatment
  % Change in plant coverage: −15%
Duckweed (Lemna spp.); 7 Days Post vs pre-treatment
  % Change in plant coverage: −14%
Duckweed (Lemna spp.)
  Plant coverage, 3 Days Post: 23%
  Plant coverage, 5 Days Post: 22%
  Plant coverage, 7 Days Post: 22%
  Plant coverage, Pre-Treat.: 25%

## [O]=[Mg] [Magnesium oxide, magnesium oxide]
[1]
  pH: 7.5
[2]
  pH of beaker: 8.0 (±0.1)

## copper ethanolamine [Copper ethanolamine only]
Duckweed (Lemna spp.); 3 Days Post vs pre-treatment
  % Change in plant coverage: −2%
Duckweed (Lemna spp.); 5 Days Post vs pre-treatment
  % Change in plant coverage: −89%
Duckweed (Lemna spp.); 7 Days Post vs pre-treatment
  % Change in plant coverage: −89%
Duckweed (Lemna spp.)
  Plant coverage, 3 Days Post: 35%
  Plant coverage, 5 Days Post: 4%
  Plant coverage, 7 Days Post: 4%
  Plant coverage, Pre-Treat.: 35%

## O.O=C([O-])C(=O)[O-].[K+].[K+] [Potassium oxalate (monohydrate), potassium oxalate (monohydrate)]
[1]
  pH: 7

## O=C([O-])[O-].[Ca+2] [Calcium carbonate, calcium carbonate]
[1]
  pH: 7.5

## Cc1nn(-c2cc(CC(Cl)C(=O)O)c(Cl)cc2F)c(=O)n1C(F)F (centres unmarked) [Carfentrazone only, carfentrazone]
Duckweed (Lemna spp.); 3 Days Post vs pre-treatment
  % Change in plant coverage: 13%
Duckweed (Lemna spp.); 5 Days Post vs pre-treatment
  % Change in plant coverage: −29%
Duckweed (Lemna spp.); 7 Days Post vs pre-treatment
  % Change in plant coverage: −17%
Duckweed (Lemna spp.)
  Plant coverage, 3 Days Post: 39%
  Plant coverage, 5 Days Post: 24%
  Plant coverage, 7 Days Post: 29%
  Plant coverage, Pre-Treat.: 34%

## NC(=O)CC[C@H](N)C(=O)O [Glutamine, glutamine]
[1]; [3]
  pH: 7

## [Na+].[OH-] [Sodium hydroxide, sodium hydroxide]
[1]
  pH: 14
